Data: the supplement of paper PMC10307832

Compound: Cc1cc(Nc2cc(N3CCN(C)CC3)nc(Sc3ccc(NC(=O)C4CC4)cc3)n2)n[nH]1 [Tozasertib]
Experiment: relative viability (nuclei count vs DMSO), 5 days (fraction); higher = more cells survive
In short: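 Viability was defined as treated-well nuclei divided by vehicle-well nuclei, with the median taken over replicate plates. Cells from lung cancer lines sat overnight at 37 °C in 1536-well plates, received five √10-spaced library-drug doses by pinning on vehicle-anchored plates, and grew 5 days without medium change before one-step fixation, permeabilisation and Hoechst staining, 4× imaging and MetaXpress nuclear counts. Only plates with control CV under 25% and at least one doubling were kept.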

Row | Cell Line | relative viability (0.004 µM) | relative viability (0.01265 µM) | relative viability (0.04 µM) | relative viability (0.1 µM, anchor plate) | relative viability (0.1265 µM)
1 | COR-L 105 | 0.956 | 0.974 | 0.957 | 0.36 | 0.473
2 | NCI-H2023 | 0.999 | 0.985 | 1.14 | 0.369 | 0.605
3 | EPLC-272H | 0.981 | – | 1 | 0.296 | 0.55
4 | BEN | 1.11 | 0.921 | 1.06 | – | 0.759
5 | NCI-H1395 | 1.03 | 0.817 | 0.776 | 0.768 | 0.495
6 | LCLC-103H | 1.06 | 1.06 | 1.02 | 0.499 | 0.952
7 | A-427 | 1.04 | 0.911 | 1.08 | 0.212 | 0.505
8 | ChaGo-K-1 | 1.06 | 1 | 1 | 0.233 | 0.858
9 | NCI-H1650 | 1.03 | 0.918 | 1.09 | 0.418 | 0.502
10 | SK-LU-1 | 1.09 | 1.11 | 1.14 | 0.334 | 0.964
11 | NCI-H522 | 1.12 | 1 | 1.05 | 0.565 | 0.671
12 | LU99A | 1.05 | 0.904 | 0.824 | 0.282 | 0.594
13 | NCI-H2170 | 0.964 | 1.01 | 0.954 | 0.755 | 0.893
14 | HCC-44 | 1.02 | 0.903 | 1.01 | 0.974 | –
15 | UMC-11 | 1.03 | 0.898 | 0.966 | 0.206 | 0.342
16 | 201T | 0.973 | 0.956 | 0.968 | 0.915 | 0.89
17 | NCI-H2009 | 1.03 | 0.951 | 1 | 0.74 | 0.885
18 | NCI-H1734 | 1.01 | 0.957 | 0.95 | 0.266 | 0.504
19 | HCC-15 | 1.06 | 0.936 | 1.04 | 0.393 | 0.687
20 | NCI-H1437 | 1.01 | 0.941 | 0.924 | 0.406 | –
21 | NCI-H1563 | 1.04 | 1.07 | 1.02 | – | 0.884
22 | NCI-H2085 | 1.02 | 0.982 | 0.984 | 0.84 | 0.915
23 | NCI-H2126 | 0.996 | 1.06 | 1.04 | 0.846 | 0.925
24 | SW 1573 | 1.02 | 0.904 | 0.945 | 0.191 | 0.48
25 | EKVX | 0.939 | 0.937 | 0.988 | 0.386 | 0.898

Row | Cell Line | relative viability (0.004 µM) | relative viability (0.01265 µM) | relative viability (0.04 µM) | relative viability (0.1 µM, anchor plate) | relative viability (0.1265 µM)
26 | NCI-H1792 | 1.16 | 0.781 | 1.01 | – | 0.613
27 | NCI-H1793 | 1.03 | 0.76 | 1.01 | 0.384 | 0.892
28 | NCI-H1944 | 1.01 | 0.963 | 0.901 | 0.263 | 0.526
29 | NCI-H838 | 0.994 | 0.951 | 1.06 | 0.265 | 0.683
30 | LCLC-97TM1 | 1.07 | 0.94 | 0.906 | 0.236 | 0.396
31 | EMC-BAC-2 | 1.01 | 0.946 | 0.913 | 0.294 | 0.486
32 | HOP-62 | 1.02 | 0.992 | 0.987 | 0.398 | 0.88
33 | LK-2 | 1.09 | 0.847 | 1.09 | 0.176 | 0.489
34 | NCI-H322M | 0.92 | – | 1.02 | 0.493 | 0.682
35 | HCC-366 | 0.991 | 1.01 | 1.08 | 0.123 | 0.93
36 | NCI-H460 | 1.01 | 0.955 | 1.04 | 0.415 | 0.868
37 | HCC-827 | 1.1 | 1.04 | 1.09 | 0.414 | 0.976
38 | HARA | 0.981 | – | 1.01 | 0.11 | 0.519
39 | NCI-H441 | 0.987 | – | – | 0.664 | –
40 | PC-14 | 0.81 | 0.904 | 1.1 | 0.601 | 0.638
41 | NCI-H358 | 1 | – | 0.977 | 0.109 | 0.37
42 | NCI-H1755 | 1.03 | 0.994 | 1.04 | 0.577 | 0.953
43 | NCI-H2347 | 1.03 | 1 | 1.08 | 0.573 | 0.941
44 | NCI-H647 | 1.04 | – | 0.926 | 0.279 | 0.458
45 | ABC-1 | 1.02 | 0.858 | 0.767 | 0.186 | 0.412
46 | NCI-H520 | 1.07 | 0.934 | 1.07 | 0.458 | 0.547
47 | HCC-78 | 1.1 | 0.819 | 1.09 | 0.464 | 0.806
48 | NCI-H1355 | 1.03 | 0.956 | 1.05 | 0.585 | 0.817
49 | NCI-H2087 | 1.16 | 1.02 | 1.11 | 0.254 | 0.581
50 | NCI-H3122 | 0.965 | 0.976 | – | 0.421 | 1.01

Row | Cell Line | relative viability (0.004 µM) | relative viability (0.01265 µM) | relative viability (0.04 µM) | relative viability (0.1 µM, anchor plate) | relative viability (0.1265 µM)
51 | CAL-12T | 1.09 | – | 0.952 | 0.309 | 0.42
52 | LOU-NH91 | 0.787 | 0.918 | 1.1 | 0.659 | 0.9
53 | NCI-H1666 | 0.901 | 0.892 | 0.975 | 0.601 | 0.846
54 | NCI-H1975 | 1.04 | 0.91 | 1.06 | 0.759 | 0.85
55 | A549 | 1.02 | 0.982 | 1.05 | – | 0.488
56 | NCI-H1651 | 1.02 | 0.949 | 0.984 | 0.698 | 0.922
57 | SK-MES-1 | 1.03 | 1 | 1.1 | 0.885 | 0.955
58 | NCI-H661 | 0.976 | 0.94 | 1 | 0.367 | 0.68
59 | NCI-H23 | 1.05 | 0.953 | 0.885 | 0.365 | 0.501
60 | LXF-289 | 1 | 0.972 | 0.943 | 0.199 | 0.759
61 | NCI-H1915 | 1.04 | 0.986 | 0.934 | 0.435 | 0.795
62 | SW 900 | 1.06 | 0.736 | 0.933 | 0.566 | 0.62
63 | NCI-H1703 | 1.04 | 0.857 | 1.21 | – | 0.556
64 | COR-L23 | 1.02 | 0.958 | 0.947 | 0.203 | 0.701
65 | NCI-H596 | 0.993 | 0.883 | 1.01 | 0.919 | 0.988
66 | NCI-H2228 | 1.08 | 1.07 | 1.03 | 0.265 | 0.607
67 | PC-3 [JPC-3] | 0.918 | 0.981 | 1.05 | 0.88 | 0.733
68 | NCI-H2405 | 1.04 | 1.01 | 0.992 | 0.731 | 0.885
69 | NCI-H1993 | 1.03 | 0.782 | 0.939 | 0.58 | 0.676
70 | LC-2-ad | 1.06 | 0.913 | 0.928 | 0.453 | 0.494
71 | RERF-LC-KJ | 0.942 | 0.914 | 1.04 | 0.491 | 0.895
72 | H3255 | 1.07 | 0.854 | 0.966 | 0.721 | 0.833
73 | NCI-H650 | 0.993 | 0.934 | 0.918 | 0.724 | 0.606
74 | NCI-H727 | 1.15 | 0.879 | 1.11 | 0.667 | 0.78
